How the values were obtained:
Format in all cases: in vivo
[1] = system: barnyardgrass (Echinochloa crus-galli); experiment: Test A preemergence barnyardgrass; conditions: 0 to 100 scale
Method in brief: (§1)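 Scores reflect visual comparison with untreated controls after ~10 d in the greenhouse (0 none, 100 complete control). Treatment was a surfactant-containing non-phytotoxic solvent formulation, sprayed onto soil after seeding or onto seedlings at one to two leaves, 2–10 cm tall.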

[2] = system: kochia (Kochia scoparia); experiment: Test A preemergence kochia; conditions: 0 to 100 scale, 0 no effect, 100 complete control
Method in brief: as §1

[3] = system: ragweed (common ragweed, Ambrosia elatior); experiment: Test A preemergence ragweed; conditions: 0 to 100 scale, 0 no effect, 100 complete control
Method in brief: as §1

[4] = system: ryegrass, Italian (Italian ryegrass, Lolium multiflorum); experiment: Test A preemergence ryegrass, Italian; conditions: 0 to 100 scale, 0 no effect, 100 complete control
Method in brief: as §1

[5] = system: foxtail, giant (giant foxtail, Setaria faberii); experiment: Test A preemergence foxtail, giant; conditions: 0 to 100 scale, 0 no effect, 100 complete control
Method in brief: as §1

[6] = system: pigweed (Amaranthus retroflexus); experiment: Test A preemergence pigweed; conditions: 0 to 100 scale, 0 no effect, 100 complete control
Method in brief: as §1

[7] = system: barnyardgrass (Echinochloa crus-galli); experiment: Test A postemergence barnyardgrass; conditions: 0 to 100 scale, 0 is no effect, 100 is complete control
Method in brief: as §1

[8] = system: kochia (Kochia scoparia); experiment: Test A postemergence kochia; conditions: 0 to 100 scale, 0 is no effect, 100 is complete control
Method in brief: as §1

[9] = system: ragweed (common ragweed, Ambrosia elatior); experiment: Test A postemergence ragweed; conditions: 0 to 100 scale, 0 is no effect, 100 is complete control
Method in brief: as §1

[10] = system: ryegrass, Italian (Italian ryegrass, Lolium multiflorum); experiment: Test A postemergence ryegrass, Italian; conditions: 0 to 100 scale, 0 is no effect, 100 is complete control
Method in brief: as §1

[11] = system: foxtail, giant (giant foxtail, Setaria faberii); experiment: Test A postemergence foxtail, giant; conditions: 0 to 100 scale, 0 is no effect, 100 is complete control
Method in brief: as §1

[12] = system: pigweed (Amaranthus retroflexus); experiment: Test A postemergence pigweed; conditions: 0 to 100 scale, 0 is no effect, 100 is complete control
Method in brief: as §1

[13] = system: wheat (Triticum aestivum); experiment: Test A postemergence wheat; conditions: 0 to 100 scale, 0 is no effect, 100 is complete control
Method in brief: as §1

[14] = system: corn (Zea mays); experiment: Test A postemergence corn; conditions: 0 to 100 scale, 0 is no effect, 100 is complete control
Method in brief: as §1

[15] = system: blackgrass (Alopecurus myosuroides); experiment: Test A postemergence blackgrass; conditions: 0 to 100 scale, 0 is no effect, 100 is complete control
Method in brief: as §1

[16] = system: galium (catchweed bedstraw, Galium aparine); experiment: Test A postemergence galium; conditions: 0 to 100 scale, 0 is no effect, 100 is complete control
Method in brief: as §1

[17] = system: rice (Oryza sativa); experiment: Test C flooded paddy test rice; conditions: Table C, Flood, scale 0 to 100
Text: (§2) Plant species in the flooded paddy test consisted of rice (Oryza sativa), sedge, umbrella (small-flower umbrella sedge, Cyperus difformis), ducksalad (Heteranthera limosa), and barnyardgrass (Echinochloa crus-galli) grown to the 2-leaf stage for testing. At time of treatment, test pots were flooded to 3 cm above the soil surface, treated by application of test compounds directly to the paddy water, and then maintained at that water depth for the duration of the test. Treated plants and controls were maintained in a greenhouse for 13 to 15 d, after which time all species were compared to controls and visually evaluated. Plant response ratings, summarized in Table C, are based on a scale of 0 to 100 where 0 is no effect and 100 is complete control. A dash (-) response means no test result.

[18] = system: sedge, umbrella (small-flower umbrella sedge, Cyperus difformis); experiment: Test C flooded paddy test sedge, umbrella; conditions: Table C, Flood, scale 0 to 100
Text: as §2

[19] = system: ducksalad (Heteranthera limosa); experiment: Test C flooded paddy test ducksalad; conditions: Table C, Flood, scale 0 to 100
Text: as §2

[20] = system: barnyardgrass (Echinochloa crus-galli); experiment: Test C flooded paddy test barnyardgrass; conditions: Table C, Flood, scale 0 to 100
Text: as §2

Which results are given for O=C1NCCC(c2ccc(C(F)(F)F)cc2)C1C(=O)Nc1ccccc1C(F)(F)F (racemic) [Compound 12]?
Barnyardgrass plant response rating ([1]; 125 g ai/ha, 0 no effect, 100 complete control): 20; Plant response rating, Barnyardgrass ([1]; 500 g ai/ha, 0 is no effect, 100 is complete control): 70; Kochia plant response rating ([2]; 125 g ai/ha): 0; Kochia plant response rating ([2]; 500 g ai/ha): 0; Ragweed plant response rating ([3]; 125 g ai/ha): 0; Ragweed plant response rating ([3]; 500 g ai/ha): 0; Ryegrass, Italian plant response rating ([4]; 125 g ai/ha): 0; Ryegrass, Italian plant response rating ([4]; 500 g ai/ha): 0; Foxtail, Giant plant response rating ([5]; 125 g ai/ha): 20; Foxtail, Giant plant response rating ([5]; 500 g ai/ha): 70; Pigweed plant response rating ([6]; 125 g ai/ha): 0; Pigweed plant response rating ([6]; 500 g ai/ha): 0; Plant response rating, Barnyardgrass ([7]; 125 g ai/ha): 20; Plant response rating, Barnyardgrass ([7]; 500 g ai/ha): 60; Plant response rating, Kochia ([8]; 125 g ai/ha): 0; Plant response rating, Kochia ([8]; 500 g ai/ha): 0; Plant response rating, Ragweed ([9]; 125 g ai/ha): 0; Plant response rating, Ragweed ([9]; 500 g ai/ha): 0; Plant response rating, Ryegrass, Italian ([10]; 125 g ai/ha): 0; Plant response rating, Ryegrass, Italian ([10]; 500 g ai/ha): 0; Plant response rating, Foxtail, Giant ([11]; 125 g ai/ha): 20; Plant response rating, Foxtail, Giant ([11]; 500 g ai/ha): 60; Plant response rating, Pigweed ([12]; 125 g ai/ha): 0; Plant response rating, Pigweed ([12]; 500 g ai/ha): 0; Plant response rating, Wheat ([13]; 125 g ai/ha): 0; Plant response rating, Wheat ([13]; 500 g ai/ha): 0; Plant response rating, Corn ([14]; 125 g ai/ha): 0; Plant response rating, Corn ([14]; 500 g ai/ha): 0; Plant response rating, Blackgrass ([15]; 125 g ai/ha): 0; Plant response rating, Blackgrass ([15]; 500 g ai/ha): 0; Plant response rating, Galium ([16]; 125 g ai/ha): 0; Plant response rating, Galium ([16]; 500 g ai/ha): 0; Plant response rating ([17]; 125 g ai/ha): 0; Plant response rating ([17]; 250 g ai/ha): 0; Plant response rating ([17]; 500 g ai/ha): 0; Plant response rating ([17]; 1000 g ai/ha): 0; Plant response rating ([18]; 125 g ai/ha): 0; Plant response rating ([18]; 250 g ai/ha): 0; Plant response rating ([18]; 500 g ai/ha): 10; Plant response rating ([18]; 1000 g ai/ha): 25; Plant response rating ([19]; 125 g ai/ha): 0; Plant response rating ([19]; 250 g ai/ha): 35; Plant response rating ([19]; 500 g ai/ha): 75; Plant response rating ([19]; 1000 g ai/ha): 100; Plant response rating ([20]; 125 g ai/ha): 0; Plant response rating ([20]; 250 g ai/ha): 15; Plant response rating ([20]; 500 g ai/ha): 20; Plant response rating ([20]; 1000 g ai/ha): 25
